Experimental data published in US10067143B2, “Ubiquitination assay” (ITI Scotland Limited, priority 2010, dated 2018).

Biological target: T1, SCF^Skp2/Cks1
T1 construct: 6His-Skp2-(isoform 1, hu,FL),; GST-Skp1-(hu,FL), 6His-Cul1-; (hu,FL), UT-Rbx1-(hu,FL); 6His-Cks1-(hu,FL); 6His (N); GST (N); made in house
Test: 'Live' SCF^Skp2/Cks1 (E3) p27 ubiquitination assay, ECL
Assay type: biochemical, human
Details: for IC50, E3 (SCF^Skp2/Cks1) assay ECL / shows up as inhibitor in R140 kinase inhibitor panel: 60 minute incubation; for IC50, E3 (SCF^Skp2/Cks1) assay ECL: 25 nM c-Myc p27, 5 nM E1, 1 μM E2, 25 nM E3 tetramer, 25 nM Cks1, 2 μM Ub, 100 μM ATP; for shows up as inhibitor in R140 kinase inhibitor panel / inhibition in E3 assay, panel of 41 inhibitors: final E3 assay conditions; for inhibition in E3 assay, panel of 41 inhibitors: R140 kinase inhibitor panel + PYR-41
Experimental: FIG. 30 (a): ‘Live’ SCF^Skp2/Cks1 Assay—ECL Inhibitor study—PYR-41 (E1 inhibitor).
FIG. 32: ‘Live’ SCF^Skp2/Cks1 Assay—ECL R140 Kinase inhibit or panel. Used 60 minute incubation; 25 nM c-Myc p27; anti-c-Myc capture for p27 (Millipore 05-274, 1/500); 5 nM E1; 1 μM E2 (HA); 25 nM E3 tetramer; 25 nM Cks1; 2 μM Ub; 100 μM ATP; streptavidin sulfo tag (MSD, R32AD-1, 1 μg/ml).
FIG. 34: ‘Live’ SCF^Skp2/Cks1 Assay—ECL follow up IC50s. Used 60 minute incubation; 25 nM c-Myc p27; anti c-Myc capture for p27 (Millipore 05-274, 1/500); 5 nM E1; 1 μM E2 (HA); 25 nM E3 tetramer; 25 nM Cks1; 2 μM Ub; 100 μM ATP; streptavidin sulfo tag (MSD, R32AD-1, 1 μg/ml). Titration of PYR41 (Calbiochem 662105) from 300 μM to 10 nM (control). Titration of Rottlerin, EGCG, AG538 and K252c from 300 μM to 10 nM.
Each of the assays in the p27 ubiquitination cascade (E1, E2 and E3) were tested against the E1 inhibitor PYR-41. No pre-charging of either the E1 or E2 was carried out prior to the introduction of the compound although in the E3 assay, p27 phosphorylation by CDK2/Cyclin E was carried out in the absence of inhibitor.
In order to test the feasibility of screening the E3 assay against a range of inhibitors, the assay was tested against a panel of 41 inhibitors (40 known kinase inhibitors and PYR-41) (FIG. 31). […] Using the same assay conditions, the E3 assay was tested against these inhibitors (FIG. 33).

T1 sequence (Q13309 whole entry, canonical isoform): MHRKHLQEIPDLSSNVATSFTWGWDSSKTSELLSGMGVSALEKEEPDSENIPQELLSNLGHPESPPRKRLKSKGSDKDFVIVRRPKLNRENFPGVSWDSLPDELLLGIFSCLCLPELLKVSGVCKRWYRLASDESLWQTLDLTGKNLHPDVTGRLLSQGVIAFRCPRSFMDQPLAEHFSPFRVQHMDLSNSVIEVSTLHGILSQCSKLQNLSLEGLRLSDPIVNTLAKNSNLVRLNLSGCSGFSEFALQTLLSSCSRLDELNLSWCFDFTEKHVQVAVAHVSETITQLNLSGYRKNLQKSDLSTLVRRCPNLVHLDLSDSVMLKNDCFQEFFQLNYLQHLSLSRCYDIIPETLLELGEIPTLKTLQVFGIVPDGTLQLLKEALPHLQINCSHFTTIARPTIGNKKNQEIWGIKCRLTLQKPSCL
T1 sequence (P63208 1-160 isoform P63208-2, further chain): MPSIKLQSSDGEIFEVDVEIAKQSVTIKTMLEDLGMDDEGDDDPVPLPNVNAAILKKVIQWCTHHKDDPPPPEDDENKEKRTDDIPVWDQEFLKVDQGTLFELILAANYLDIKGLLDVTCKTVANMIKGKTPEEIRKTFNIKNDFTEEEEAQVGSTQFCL
T1 sequence (Q13616 whole entry, further chain, canonical isoform): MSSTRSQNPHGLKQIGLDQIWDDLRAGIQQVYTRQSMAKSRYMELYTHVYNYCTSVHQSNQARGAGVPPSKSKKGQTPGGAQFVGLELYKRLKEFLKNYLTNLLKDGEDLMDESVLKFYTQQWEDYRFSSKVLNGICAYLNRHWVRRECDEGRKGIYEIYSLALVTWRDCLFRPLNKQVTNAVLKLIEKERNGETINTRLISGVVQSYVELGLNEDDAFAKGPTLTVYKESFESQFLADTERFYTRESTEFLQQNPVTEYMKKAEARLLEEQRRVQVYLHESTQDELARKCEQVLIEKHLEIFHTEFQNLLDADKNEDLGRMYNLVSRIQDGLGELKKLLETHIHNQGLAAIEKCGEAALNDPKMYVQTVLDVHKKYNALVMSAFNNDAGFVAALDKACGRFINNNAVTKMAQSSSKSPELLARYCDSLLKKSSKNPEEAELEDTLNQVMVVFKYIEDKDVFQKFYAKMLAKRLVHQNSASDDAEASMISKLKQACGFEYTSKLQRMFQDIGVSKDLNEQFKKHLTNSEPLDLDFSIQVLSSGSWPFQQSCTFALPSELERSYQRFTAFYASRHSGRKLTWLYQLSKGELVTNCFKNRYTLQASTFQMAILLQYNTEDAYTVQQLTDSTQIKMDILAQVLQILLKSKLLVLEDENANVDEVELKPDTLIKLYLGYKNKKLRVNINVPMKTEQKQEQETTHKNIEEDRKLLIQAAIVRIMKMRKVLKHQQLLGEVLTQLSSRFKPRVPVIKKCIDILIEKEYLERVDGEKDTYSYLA
T1 sequence (P62877 whole entry, further chain, canonical isoform): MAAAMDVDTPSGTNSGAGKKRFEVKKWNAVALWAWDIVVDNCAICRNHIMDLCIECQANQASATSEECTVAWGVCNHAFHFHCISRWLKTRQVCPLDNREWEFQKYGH
T1 sequence (P61024 whole entry, further chain, canonical isoform): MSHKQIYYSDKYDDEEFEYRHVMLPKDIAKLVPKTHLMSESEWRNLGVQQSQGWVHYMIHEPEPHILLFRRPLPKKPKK

Compound	IC50, E3 (SCF^Skp2/Cks1) assay ECL	shows up as inhibitor in R140 kinase inhibitor panel	inhibition in E3 assay, panel of 41 inhibitors
O=C(O[C@@H]1Cc2c(O)cc(O)cc2O[C@@H]1c1cc(O)c(O)c(O)c1)c1cc(O)c(O)c(O)c1 [EGCG]	in the μM range	show up as inhibitors	moderate amounts of inhibition
O=C1NCc2c1c1c3ccccc3[nH]c1c1[nH]c3ccccc3c21 [K252c]	false positive	show up as inhibitors	moderate amounts of inhibition
CC(=O)c1c(O)c(C)c(O)c(Cc2c(O)c3c(c(C(=O)/C=C/c4ccccc4)c2O)OC(C)(C)C=C3)c1O [Rottlerin]	in the μM range	show up as inhibitors	moderate amounts of inhibition
N#C/C(=C\c1ccc(O)c(O)c1)C(=O)c1ccc(O)c(O)c1 [AG538]	–	show up as inhibitors	–
CCOC(=O)c1ccc(N2NC(=O)/C(=C/c3ccc([N+](=O)[O-])o3)C2=O)cc1 [PYR-41]	–	–	> 80%
